The source of these data is patent publication US20080058208A1, “5,6-Cycloalkyl-7-Aminotriazolopyrimidines, their Preparation and their Use for Controlling Harmful Fungi, and Compositions Comprising these Compounds” (BASF Aktiengesellschaft, priority 2004, published 2008).

Assay [1] relates to Phytophthora infestans. It is filed as cell-based. The following applies: 125 ppm; sporangia suspension; 18° C.; absorption at 405 nm on seventh day after inoculation.
The subject of assay [2] is Pythium species. Briefly: Activity against Pythium species in the microtiter test. The following applies: 125 ppm; zoospore suspension; 18° C.; absorption at 405 nm on seventh day after inoculation. It is filed as cell-based.

For `Nc1c2c(nc3ncnn13)CCCC2` [I-2, 5,6,7,8-tetrahydro-[1,2,4]triazolo[5,1-b]quinazolin-9-ylamine], the entries for the “relative growth of the pathogens, % of that of the untreated control” value in assay [1] and in assay [2] were 6% and 7%, respectively.
